pIC50: −log10 of the molar value.

The experiment deals with recombinant human MGAT2 (Homo sapiens (Human), UniProt Q3SYC2). The experiment in a line: Measurement of human MGAT2 inhibitory activity. The format is biochemical. Conditions: read-out: IC50 (concentration exhibiting 50% enzyme inhibition), Table 52. The procedure: A full-length human MGAT2 gene to which a Flag-tag had been added at the N-terminal was inserted into pFastBac (from Invitrogen). A recombinant baculovirus was produced in accordance with the protocol for a Bac-to-Bac baculovirus expression system (produced by Invitrogen), and Sf-9 cells were infected therewith. The cells were collected and sonicated, and then the membrane fraction was collected through centrifugation. Western blotting analysis with an anti-Flag antibody was performed for the membrane fraction to confirm expression, and the membrane fraction was used as a recombinant human MGAT2 enzyme solution.
Sequence of recombinant human MGAT2 (Q3SYC2 whole entry): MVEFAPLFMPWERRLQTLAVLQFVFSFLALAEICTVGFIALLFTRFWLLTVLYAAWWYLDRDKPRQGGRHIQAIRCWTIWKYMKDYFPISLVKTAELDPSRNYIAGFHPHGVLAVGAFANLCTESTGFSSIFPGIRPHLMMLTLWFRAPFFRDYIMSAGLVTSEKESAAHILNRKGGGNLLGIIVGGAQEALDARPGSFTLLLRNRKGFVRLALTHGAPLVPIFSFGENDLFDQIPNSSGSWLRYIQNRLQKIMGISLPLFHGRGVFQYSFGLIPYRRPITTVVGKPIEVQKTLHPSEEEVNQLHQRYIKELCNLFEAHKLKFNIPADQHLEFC
Solutions of the compounds of the present invention in DMSO were each aliquoted into 0.2-μL portions in a 384-well polystyrene microplate produced by Corning Incorporated, and 5 μL of an enzyme solution prepared with an assay buffer (100 mmol/L phosphate buffer (pH 7.4) containing 2 mmol/L DTT) and 5 μL of a substrate solution (100 mmol/L phosphate buffer (pH 7.4), 30 μmol/L 2-Oleoylglycerol, 10 μmol/L Oleoyl-CoA) were added thereto, and the resultant was stirred and centrifuged, and incubated in a moist chamber at room temperature for 1 hour. After enzymatic reaction, 50 μL of a quenching solution (containing 0.2 μmol/L Diolein-d5, 0.4% formic acid, and 50% isopropanol) containing Internal Standard (IS) was added to terminate the reaction, and the resultant was sealed in a plate produced by Shimadzu GLC Ltd., and then stirred and centrifuged, and measurement was performed by using an electrospray ionization method with a RapidFire360 and Agilent 6550 Q-TOF mass spectrometer. Diolein as a reaction product (P) of 2-Oleoylglycerol as the substrate and an ammonium adduct ion of the IS were detected, and the peak intensity ratio, P/IS, was calculated from the peak heights to evaluate the inhibitory activity. Inhibitory activities with/without addition of enzyme were defined as Control (+)/Control (−), respectively, and the respective % inhibitions were defined as 0% inhibition and 100% inhibition. The inhibitory activity was calculated from formula below with TIBCO Spotfire (produced by TIBCO Software Inc.): Inhibitory activity (%)=[1−{Sample−Control(−)}/{Control(+)−Control(−)}]*100 where Sample indicates a peak intensity ratio: P/IS, when the compound of the present invention was added.
For `CS(=O)(=O)CC(=O)Nc1c2c(nn1-c1ccccn1)C[C@](c1ccc(OCC(F)(F)F)cc1)(C(F)(F)F)NC2=O` [Compound I-103], the pIC50 is 6.49.

As to `CS(=O)(=O)CC(=O)Nc1c2c(nn1-c1ccccn1)C[C@@]1(CCc3cc(OCC(F)(F)F)ccc31)NC2=O` [Compound I-104], the pIC50 was 7.92.

Consider `CS(=O)(=O)CC(=O)Nc1c2c(nn1-c1ccccn1)C[C@]1(CCOc3cc(OCC(F)(F)F)ccc31)NC2=O` [Compound I-105], for which the pIC50 is 8.17.

Regarding `CS(=O)(=O)CC(=O)Nc1c2c(nn1-c1ccc(C3CC3)cc1)C[C@]1(CCc3cc(OCCCC(F)(F)F)ccc31)NC2=O` [Compound I-106], the pIC50 is 7.96.

For the molecule `O=C1N[C@@]2(CCc3cc(OCC(F)(F)F)cc(F)c32)Cc2nn(-c3ccccn3)c(-c3nnn[nH]3)c21` [Compound I-107], the pIC50 was 6.12.

Regarding `O=C1N[C@@]2(CCc3cc(OCC(F)(F)F)ccc32)Cc2nn(CCC3CC3)c(C(=O)NS(=O)(=O)C(F)(F)F)c21` [Compound I-108], the pIC50 was 8.54.

Take `O=C1N[C@@]2(CCc3cc(OCC(F)(F)F)ccc32)Cc2nn(CCC3CC3)c(C(=O)NS(=O)(=O)C(F)F)c21` [Compound I-109]: the pIC50 is 8.21.

With `CC1(S(=O)(=O)NC(=O)c2c3c(nn2CCC2CC2)C[C@]2(CCc4cc(OCC(F)(F)F)ccc42)NC3=O)CC1` [Compound I-110], the pIC50 is 8.00.

With `O=C1N[C@@]2(CCc3cc(OCC(F)(F)F)ccc32)Cc2nn(CCC3CC3)c(C(=O)NS(=O)(=O)c3ccccc3)c21` [Compound I-111], the pIC50 is 6.72.

Take `COCCS(=O)(=O)NC(=O)c1c2c(nn1CCC1CC1)C[C@]1(CCc3cc(OCC(F)(F)F)ccc31)NC2=O` [Compound I-112]: the pIC50 is 7.35.

Turning to `O=C1N[C@@]2(CCc3cc(OCC(F)(F)F)ccc32)Cc2nn(CCC3CC3)c(C(=O)NS(=O)(=O)C3CCCC3)c21` [Compound I-113], the pIC50 was 6.09.

In the case of `COCCCS(=O)(=O)NC(=O)c1c2c(nn1CCC1CC1)C[C@]1(CCc3cc(OCC(F)(F)F)ccc31)NC2=O` [Compound I-114], the pIC50 is 6.96.

`CCOCCS(=O)(=O)NC(=O)c1c2c(nn1CCC1CC1)C[C@]1(CCc3cc(OCC(F)(F)F)ccc31)NC2=O` [Compound I-115]: the pIC50 is 7.19.

As for `O=C1N[C@@]2(CCc3cc(OCC(F)(F)F)ccc32)Cc2nn(CCC3CC3)c(C(=O)NS(=O)(=O)CC3CC3)c21` [Compound I-116], the pIC50 is 6.59.

Turning to `CC(C)S(=O)(=O)NC(=O)c1c2c(nn1CCC1CC1)C[C@]1(CCc3cc(OCC(F)(F)F)ccc31)NC2=O` [Compound I-117], the pIC50 was 7.29.

On to `CC(C)(C)S(=O)(=O)NC(=O)c1c2c(nn1CCC1CC1)C[C@]1(CCc3cc(OCC(F)(F)F)ccc31)NC2=O` [Compound I-118], for which the pIC50 is 6.43.

Regarding `O=C1N[C@@]2(CCc3cc(OCC(F)(F)F)ccc32)Cc2nn(CCC3CC3)c(C(=O)NS(=O)(=O)Cc3ccccc3)c21` [Compound I-119], the pIC50 is 6.82.

For `CCS(=O)(=O)NC(=O)c1c2c(nn1CCC1CC1)C[C@]1(CCc3cc(OCC(F)(F)F)ccc31)NC2=O` [Compound I-120], the pIC50 is 7.34.

Consider `O=C1N[C@@]2(CCc3cc(OCC(F)(F)F)ccc32)Cc2nn(CCC3CC3)c(C(=O)NS(=O)(=O)C3CCC3)c21` [Compound I-121], for which the pIC50 is 7.33.

With `CS(=O)(=O)CC(=O)Nc1c2c(nn1-c1ccc(C#N)cn1)C[C@@]1(CCc3cc(N4CC(C(F)(F)F)C4)ccc31)NC2=O` [Compound I-122], the pIC50 was 8.74.

Turning to `CS(=O)(=O)CC(=O)Nc1c2c(nn1-c1cccc(F)c1)C[C@]1(CCc3cc(OCC(F)(F)F)ccc31)NC2=O` [Compound I-123], the pIC50 is 7.26.

For `CS(=O)(=O)CC(=O)Nc1c2c(nn1-c1cccc(Cl)c1)C[C@]1(CCc3cc(OCC(F)(F)F)ccc31)NC2=O` [Compound I-124], the pIC50 is 7.66.

Regarding `CS(=O)(=O)CC(=O)Nc1c2c(nn1-c1cccc(C(F)(F)F)c1)C[C@]1(CCc3cc(OCC(F)(F)F)ccc31)NC2=O` [Compound I-125], the pIC50 was 6.28.

With `CS(=O)(=O)CC(=O)Nc1c2c(nn1-c1cccc(OC(F)(F)F)c1)C[C@]1(CCc3cc(OCC(F)(F)F)ccc31)NC2=O` [Compound I-126], the pIC50 is 6.15.

In the case of `CS(=O)(=O)CC(=O)Nc1c2c(nn1-c1cc(F)cc(F)c1)C[C@]1(CCc3cc(OCC(F)(F)F)ccc31)NC2=O` [Compound I-127], the pIC50 is 6.98.

For `CS(=O)(=O)CC(=O)Nc1c2c(nn1-c1cc(Cl)cc(Cl)c1)C[C@]1(CCc3cc(OCC(F)(F)F)ccc31)NC2=O` [Compound I-128], the pIC50 was 7.39.

In the case of `Cc1cc(C)cc(-n2nc3c(c2NC(=O)CS(C)(=O)=O)C(=O)N[C@@]2(CCc4cc(OCC(F)(F)F)ccc42)C3)c1` [Compound I-129], the pIC50 is 7.58.

In the case of `CS(=O)(=O)CC(=O)Nc1c2c(nn1-c1cc(C(F)(F)F)cc(C(F)(F)F)c1)C[C@]1(CCc3cc(OCC(F)(F)F)ccc31)NC2=O` [Compound I-130], the pIC50 is 6.30.

On to `CS(=O)(=O)CC(=O)Nc1c2c(nn1-c1ccc(F)c(F)c1)C[C@]1(CCc3cc(OCC(F)(F)F)ccc31)NC2=O` [Compound I-131], for which the pIC50 was 8.28.

For the molecule `Cc1ccc(-n2nc3c(c2NC(=O)CS(C)(=O)=O)C(=O)N[C@@]2(CCc4cc(OCC(F)(F)F)ccc42)C3)cc1C` [Compound I-132], the pIC50 was 8.02.

In the case of `CS(=O)(=O)CC(=O)Nc1c2c(nn1-c1ccc(C#N)cc1)C[C@]1(CCc3cc(OCC(F)(F)F)ccc31)NC2=O` [Compound I-133], the pIC50 is 7.85.

`Cc1cccc(-n2nc3c(c2NC(=O)CS(C)(=O)=O)C(=O)N[C@@]2(CCc4cc(OCC(F)(F)F)ccc42)C3)n1` [Compound I-134]: the pIC50 was 6.47.

For the molecule `Cc1ccnc(-n2nc3c(c2NC(=O)CS(C)(=O)=O)C(=O)N[C@@]2(CCc4cc(OCC(F)(F)F)ccc42)C3)c1` [Compound I-135], the pIC50 was 8.51.

Consider `CS(=O)(=O)CC(=O)Nc1c2c(nn1CCCC(F)(F)F)C[C@@]1(CCc3cc(OCC(F)(F)F)cc(F)c31)NC2=O` [Compound I-136], for which the pIC50 was 8.39.

In the case of `CS(=O)(=O)CC(=O)Nc1c2c(nn1-c1ccc(C#N)cn1)C[C@@]1(CCc3cc(OCC(F)(F)F)cc(F)c31)NC2=O` [Compound I-137], the pIC50 was 8.77.

As to `CS(=O)(=O)NCc1c2c(nn1CCC1CC1)C[C@]1(CCc3cc(OCC(F)(F)F)ccc31)NC2=O` [Compound I-138], the pIC50 is 6.26.

Take `CCc1ccc(-n2nc3c(c2NC(=O)CS(C)(=O)=O)C(=O)N[C@@]2(CCc4cc(OCCCC(F)(F)F)ccc42)C3)cc1` [Compound I-139]: the pIC50 is 8.39.

Turning to `O=C1N[C@@]2(CCc3cc(OCC(F)(F)F)ccc32)Cc2nn(CCC3CC3)c(CNS(=O)(=O)C3CCCC3)c21` [Compound I-140], the pIC50 is 6.14.

As for `CC(C)S(=O)(=O)NCc1c2c(nn1CCC1CC1)C[C@]1(CCc3cc(OCC(F)(F)F)ccc31)NC2=O` [Compound I-141], the pIC50 is 6.37.

In the case of `O=C1N[C@@]2(CCc3cc(OCC(F)(F)F)ccc32)Cc2nn(CCC3CC3)c(CNS(=O)(=O)C3CCOCC3)c21` [Compound I-142], the pIC50 was 6.57.

With `O=C1N[C@@]2(CCc3cc(OCC(F)(F)F)ccc32)Cc2nn(CCC3CC3)c(CNS(=O)(=O)C3CCC3)c21` [Compound I-143], the pIC50 was 6.29.

As to `O=C1N[C@@]2(CCc3cc(OCC(F)(F)F)ccc32)Cc2nn(CCC3CC3)c(CNS(=O)(=O)CCO)c21` [Compound I-144], the pIC50 is 6.40.

For the molecule `O=C1N[C@@]2(CCc3cc(OCC(F)(F)F)ccc32)Cc2nn(CCC3CC3)c(CNC(=O)C3CC3)c21` [Compound I-145], the pIC50 was 7.08.

`Cc1ccccc1C(=O)NCc1c2c(nn1CCC1CC1)C[C@]1(CCc3cc(OCC(F)(F)F)ccc31)NC2=O` [Compound I-146]: the pIC50 was 6.38.

On to `O=C1N[C@@]2(CCc3cc(OCC(F)(F)F)ccc32)Cc2nn(CCC3CC3)c(CNC(=O)C3CCC3)c21` [Compound I-147], for which the pIC50 was 7.41.

With `O=C(CC(F)(F)F)NCc1c2c(nn1CCC1CC1)C[C@]1(CCc3cc(OCC(F)(F)F)ccc31)NC2=O` [Compound I-148], the pIC50 is 8.25.

`O=C(NCc1c2c(nn1CCC1CC1)C[C@]1(CCc3cc(OCC(F)(F)F)ccc31)NC2=O)c1cccc(O)c1` [Compound I-149]: the pIC50 is 6.16.

Take `O=C(NCc1c2c(nn1CCC1CC1)C[C@]1(CCc3cc(OCC(F)(F)F)ccc31)NC2=O)c1ncco1` [Compound I-150]: the pIC50 was 7.00.

`O=C(NCc1c2c(nn1CCC1CC1)C[C@]1(CCc3cc(OCC(F)(F)F)ccc31)NC2=O)c1ccon1` [Compound I-151]: the pIC50 is 6.74.

As for `O=C(NCc1c2c(nn1CCC1CC1)C[C@]1(CCc3cc(OCC(F)(F)F)ccc31)NC2=O)c1ccno1` [Compound I-152], the pIC50 was 6.52.
